The record followed here is patent US12660821B2, “Herbicide compositions with epyrifenacil and 2,4-D triethanolamine salt with improved properties” (MONSANTO TECHNOLOGY LLC, priority 2020, dated 2026).

This data set in a line: Partition coefficient of compound (A) between organic solvent and water (procedure G1, HPLC). Type of data set: physicochemical. As to conditions: approx. 25° C. The method, then: G1: General Experimental Procedure to Determine the Partition Coefficient of Compound (A) in Solvents
The experimental procedure for the respective solvent is as follows: (1) A solution of 10 g of compound (A) is prepared in 90 g of the respective solvent; (2) An aliquot of 10 g of the solution obtained in step (1) is added to 90 g of water in a glass bottle, which is shaken on a mechanical shaker for 4 hours at ambient temperature (approximately 25° C.); (3) The contents of the glass bottle are permitted to phase separate for 4 days at ambient temperature (approximately 25° C.); and (4) Subsamples of the resulting oil and water phases are taken and analyzed by HPLC to determine the concentrations of compound (A) in oil (Co) and water phases (Cw) respectively. The subsamples are typically centrifuged before HPLC analysis to remove traces of organic solvent from the water phase.
The partition coefficient, analogous to the octanol-water partition coefficient, P, is calculated as Co/Cw. The partition coefficient is conveniently expressed as a logarithm […]=log Co/Cw=P.
The ratio of determined concentrations of compound (A) in the solvent phase and the water phase typically is very large. […]

Each structure is given as a SMILES string.

Consider `CCOC(=O)COc1ncccc1Oc1cc(-n2c(=O)cc(C(F)(F)F)n(C)c2=O)c(F)cc1Cl` [compound (A), ethyl [3-[2-chloro-4-fluoro-5-(1-methyl-6-trifluoromethyl-2,4-dioxo-1,2,3,4-tetrahydropyrimidin-3-yl)phenoxy]-2-pyridyloxy]acetate], for which the “compound (A) in the water phase” value was “undetectable” (Aromatic 200 ND as organic solvent) and “undetectable” (acetophenone as organic solvent).
